Experimental data from publication PMC10275055, “Preventing recurrence in Sonic Hedgehog Subgroup Medulloblastoma using the OLIG2 inhibitor CT-179” (Research Square, 2023).
Read-outs that look alike come from different tables or passages of the source.

Assays:
HEK293 cells = assay: Cell viability, OLIG2-negative HEK293; format: cell-based, human; settings: HEK293, does not express OLIG2
Description: (§1) Cell proliferation was determined by a CellTiter 96® Non-Radioactive Cell Proliferation Assay (Promega) kit. Absorbance at 490 nm was measured on a Biotek PowerWave (Biotek, USA) plate scanner to obtain raw data. Average absorbance from triplicate wells were plotted against concentration using GraphPad Prism software v.7.0 (GraphPad software). At the indicated time points, cells were stained using FITC-conjugated Annexin V and Annexin V binding buffer (BD Pharmingen™) according to the manufacturer’s instructions. Annexin V or propidium iodide (PI)-positive cells were analyzed using a Fortessa 5 Flow Cytometer (Becton Dickinson) and data was analyzed using FlowJo® software (Tree Star).

[1] = In vivo pharmacokinetic studies of CT-179 in mice, plasma and brain; parameters: species or system mice (C57Bl/J6); settings: mouse; for bioavailability: in vivo, po, PO 20 mg/kg vs IV 1 mg/kg
Description: The in vivo pharmacokinetic studies (EXT-240 and EXT-241) were performed under contract by Biodura Inc.

UW228 MB cell line = assay: Cell viability, 7 days treatment, UW228; format: cell-based; settings: Homo sapiens, 168 h; UW228, 7 days
Description: as §1

R403 and R902 MBOs = assay: MB explant organoids (MBOs), cleaved caspase-3 staining; format: cell-based, human; settings: 1 μM, 48 hours, CT-179 alone
Source text: MB cell lines Daoy, UW228, and D283 were obtained from the American Type Culture Collection (ATCC) and cultured in RPMI supplemented with 1% Penicillin-Streptomycin, 1% GlutaMax-I CTS (Gibco) and 10% fetal bovine serum (FBS) (Gibco). MB002, D425 and PER547 primary cell lines were kindly provided by Dr. Tobias Schoep (Telethon Kids Institute, WA). Med-2312 PDX, Neo-113 PDX, Med-2112 PDX, Med-113 PDX and Med-813 PDX were filter tissues purchased from the Olson Laboratory (https://research.fhcrc.org/olson/en/btrl.html). Cell lines derived from the corresponding PDX tissues were labelled as primary cell lines. MB-R201 PDX is a MB PDX model generated and established in our laboratory. MB-R203 is a primary MB cell line. Primary cell lines were derived from MB patient specimens and cultured either in serum-free media grown as spheres or on matrigel. The serum-free media was prepared as previously described. Fresh surgically resected MB tissues were obtained from Queensland Children’s Tumor Bank. MB explant organoids (MBOs), R403 and R901, were generated by microdissection under a stereomicroscope (Zeiss) within a laminar flow biosafety cabinet. The MBOs were cultured in glioblastoma organoid (GBO) medium modified based on Jacob et al.. All cell lines were incubated at 37 °C under 5% CO2/95% humidified air atmosphere. […]

For `Cc1cc(NCCCN(C)C)nc(NC(=O)Nc2ccc(Cl)c(Cl)c2)n1` [CT-179], which growth suppression (HEK293 cells) is on record?
Its growth suppression is “not suppressed”.

What about the Kp at 4 h ([1]; brain, 4 hours after single PO dose, 20 mg/kg, read-out: brain to plasma (B/P) ratio, average) of the same compound?
The Kp at 4 h was 6.72.

And the Kp ([1]; brain, second study, PO doses of 1 and 5 mg/Kg once daily, read-out: estimated brain to plasma ratio)?
Its Kp is greater than 10.

And the bioavailability ([1]; 20 mg/kg, read-out: bioavailability, mean)?
The bioavailability was 75%.

And the bioavailability ([1]; 20 mg/kg, read-out: bioavailability, range estimated)?
Its bioavailability is 58 to 91%.

What about the IC50 (UW228 MB cell line) of the same compound?
Its IC50 is 285 nM.

What about the “cell death, cleaved caspase-3 staining” value (R403 and R902 MBOs) of the same compound?
The value was “significant cell death”.
